# Molecular target: T1, SST5 (Homo sapiens, UniProt P35346)
# T1 construct: purchased Perkin Elmer BioSignal; host or cells: HEK 293
# Experiment: GPCR radioligand binding (RLB) assay, somatostatin SST5, [125I]SST-14
# Settings: 10 micromolar compound; recombinant human receptor membranes (HEK 293)
# Procedure: Recombinant human receptors expressed in HEK 293 cells were used for all experiments. Receptor membrane preparations were purchased from Perkin Elmer BioSignal. The labelled ligand used in somatostatin GPCR RLB assays was [^125I]SST-14 and in melanocortin assays was [^125I]NDP-αMSH. All assays were done in a 96-well plate format using either glass fiber filter mats or filter plates. All reagents purchased were of the highest quality.
# Specific assay buffer, incubation and washing conditions were optimized for each receptor however they all followed the same general format. The procedures for both filter mat and filter plate formats are based on the receptor manufacturers recommendations or those described extensively in the literature. The procedures are briefly outlined below.
# In assays where filter mats are used we incubate receptor membranes, assay buffer and [^125I] labelled ligand in 96 well microplates. Add compounds to incubation mixture and continue incubation for optimized period. Presoak Filter mat GF/B in 0.5% PEI for ˜2 hr at 4° C. On completion of assay mixture incubation add additional 100 μL/well of assay buffer immediately prior to filtration. Filter the assay mixture onto the GF/B filter mat using a cell harvester. Dry the filter mats prior to sealing them into a scintillation counting bag with scintillant. Radioactivity in each well is detected by liquid scintillation counting.
# In assays where filter plates are used Multiscreen glass fiber filter plates (Millipore, Cat No MAFCNOB10) are precoated with 0.5% PEI for ˜2 hr at 4° C. All wells are then washed with 200 µl/well assay buffer and filtered using the Multiscreen Separation System. Subsequently receptor membranes, assay buffer and labelled ligands are added to the wells and equilibrated. Compounds for testing are then added to the mixture and incubation is continued for an optimized time. Plates are then put into the Multiscreen Separation System and the assay mixture is filtered through the plate under vacuum. Each well is then washed several times with assay buffer. Plates are then dried prior to putting sealing tape onto the bottom of the plate. Scintillant is added to each well and radioactivity measured by liquid scintillation counting.
# Raw data was analysed according to standard methods using either GraphPad Prism software or IDDBS ActivityBase software.
# T1 sequence (P35346 whole entry): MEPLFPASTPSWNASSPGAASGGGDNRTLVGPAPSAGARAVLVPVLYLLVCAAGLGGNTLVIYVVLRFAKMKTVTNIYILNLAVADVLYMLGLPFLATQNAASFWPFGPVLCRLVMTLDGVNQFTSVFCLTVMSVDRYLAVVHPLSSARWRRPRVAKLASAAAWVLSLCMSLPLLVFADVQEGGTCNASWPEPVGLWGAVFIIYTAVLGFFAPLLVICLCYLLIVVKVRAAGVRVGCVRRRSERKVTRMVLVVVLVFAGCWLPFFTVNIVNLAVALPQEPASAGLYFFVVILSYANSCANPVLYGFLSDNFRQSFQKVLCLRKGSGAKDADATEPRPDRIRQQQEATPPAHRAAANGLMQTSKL
row,SMILES,SST5 inhibition at 10 micromolar
1,COC[C@H]1OC(OCc2ccc(-c3ccccc3)cc2)[C@H](NC(=O)CCNC(=N)N)[C@@H](OCc2ccccc2)[C@@H]1O (stereo partly drawn) [Compound 31],+ (Indicates inhibition greater than . . . 50%)
2,COC[C@H]1OC(OCc2ccc3ccccc3c2)[C@H](NC(=O)CCCNC(=N)N)[C@@H](OCc2ccccc2)[C@@H]1O (stereo partly drawn) [Compound 41],+ (Indicates inhibition greater than . . . 50%)
3,COC[C@H]1OC(OCc2ccc3ccccc3c2)[C@H](NC(=O)CCCN)[C@@H](OCc2ccc(Cl)cc2)[C@@H]1O (stereo partly drawn) [Compound 42],+ (Indicates inhibition greater than . . . 50%)
4,COC[C@H]1OC(OCc2ccc(Cl)cc2)[C@H](NC(=O)CCCN)[C@@H](OCc2ccc(-c3ccccc3)cc2)[C@@H]1O (stereo partly drawn) [Compound 44],+ (Indicates inhibition greater than . . . 50%)
5,COC[C@H]1OC(OCc2ccc(Cl)cc2)[C@H](NC(=O)CCCNC(=N)N)[C@@H](OCc2ccccc2)[C@@H]1O (stereo partly drawn) [Compound 47],+ (Indicates inhibition greater than . . . 50%)
6,COC[C@H]1OC(OCCc2ccccc2)[C@H](NC(=O)CCCN)[C@@H](OCc2ccc(-c3ccccc3)cc2)[C@@H]1O (stereo partly drawn) [Compound 48],+ (Indicates inhibition greater than . . . 50%)
7,COC[C@H]1OC(OCCc2ccccc2)[C@H](NC(=O)CCCN)[C@@H](OCc2ccc3ccccc3c2)[C@@H]1O (stereo partly drawn) [Compound 50],+ (Indicates inhibition greater than . . . 50%)
8,COC[C@H]1OC(OCCc2ccccc2)[C@H](NC(=O)CCCN)[C@@H](OCc2ccc(Cl)cc2)[C@@H]1O (stereo partly drawn) [Compound 51],+ (Indicates inhibition greater than . . . 50%)
9,COC[C@H]1OC(OCCc2ccccc2)[C@H](NC(=O)CCCNC(=N)N)[C@@H](OCc2ccc(Cl)cc2)[C@@H]1O (stereo partly drawn) [Compound 52],+ (Indicates inhibition greater than . . . 50%)
10,COC[C@H]1OC(OCc2ccccc2)[C@H](NC(=O)CCCN)[C@@H](OCc2ccc3ccccc3c2)[C@@H]1O (stereo partly drawn) [Compound 54],+ (Indicates inhibition greater than . . . 50%)
11,COC[C@H]1OC(OCc2ccc(Cl)cc2)[C@H](NC(=O)CCCN)[C@@H](OCc2ccc(Cl)cc2)[C@@H]1O (stereo partly drawn) [Compound 55],+ (Indicates inhibition greater than . . . 50%)
12,CO[C@H]1[C@H](O)[C@@H](COCc2ccc3ccccc3c2)OC(OCc2ccc(-c3ccccc3)cc2)[C@@H]1NC(=O)CCNC(=N)N (stereo partly drawn) [Compound 60],+ (Indicates inhibition greater than . . . 50%)
13,CO[C@H]1[C@H](O)[C@@H](COCc2ccccc2)OC(OCc2ccc(Cl)cc2)[C@@H]1NC(=O)CCCN (stereo partly drawn) [Compound 91],+ (Indicates inhibition greater than . . . 50%)
14,CO[C@H]1[C@H](O)[C@@H](COCc2cccc(O)c2)OC(OCc2ccc3ccccc3c2)[C@@H]1NC(=O)CCCN (stereo partly drawn) [Compound 109],+ (Indicates inhibition greater than . . . 50%)
15,CO[C@H]1[C@H](O)[C@@H](COCc2cccc(O)c2)OC(OCc2ccc(Cl)cc2)[C@@H]1NC(=O)CCCN (stereo partly drawn) [Compound 111],+ (Indicates inhibition greater than . . . 50%)
16,CO[C@H]1[C@H](O)[C@@H](COCc2ccc(Cl)cc2)OC(OCc2cccc(O)c2)[C@@H]1NC(=O)CCCN (stereo partly drawn) [Compound 118],+ (Indicates inhibition greater than . . . 50%)
17,CSC1OC(COCc2ccccc2)C(O)C(OCc2ccccc2)C1NC(=O)CN (stereo not drawn) [Compound 119],+ (Indicates inhibition greater than . . . 50%)
18,CSC1OC(COCc2ccccc2)C(O)C(OCc2ccccc2)C1NC(=O)CCCN (stereo not drawn) [Compound 123],+ (Indicates inhibition greater than . . . 50%)
19,CSC1OC(COCc2ccc(Cl)cc2)C(O)C(OCc2ccccc2)C1NC(=O)CN (stereo not drawn) [Compound 125],+ (Indicates inhibition greater than . . . 50%)
20,CSC1OC(COCc2ccc(Cl)cc2)C(O)C(OCc2ccccc2)C1NC(=O)CCN (stereo not drawn) [Compound 127],+ (Indicates inhibition greater than . . . 50%)
21,CSC1OC(COCc2ccc(-c3ccccc3)cc2)C(O)C(OCc2ccccc2)C1NC(=O)CN (stereo not drawn) [Compound 131],+ (Indicates inhibition greater than . . . 50%)
22,CSC1OC(COCc2ccccc2)C(O)C(OCc2ccc(Cl)cc2)C1NC(=O)CN (stereo not drawn) [Compound 143],+ (Indicates inhibition greater than . . . 50%)
23,CSC1OC(COCc2ccccc2)C(O)C(OCc2ccc(Cl)cc2)C1NC(=O)CCCN (stereo not drawn) [Compound 147],+ (Indicates inhibition greater than . . . 50%)
24,CSC1OC(COCc2ccc(Cl)cc2)C(O)C(OCc2ccc(Cl)cc2)C1NC(=O)CN (stereo not drawn) [Compound 149],+ (Indicates inhibition greater than . . . 50%)
25,CSC1OC(COCc2ccc(Cl)cc2)C(O)C(OCc2ccc(Cl)cc2)C1NC(=O)CCCN (stereo not drawn) [Compound 153],+ (Indicates inhibition greater than . . . 50%)
26,CSC1OC(COCc2ccc(-c3ccccc3)cc2)C(O)C(OCc2ccc(-c3ccccc3)cc2)C1NC(=O)CCCNC(=N)N (stereo not drawn) [Compound 184],+ (Indicates inhibition greater than . . . 50%)
27,CSC1OC(COCc2ccccc2)C(O)C(OCc2ccc3ccccc3c2)C1NC(=O)CCN (stereo not drawn) [Compound 193],+ (Indicates inhibition greater than . . . 50%)

# Same assay, conditions: 10 micromolar; Example Library 4
row,SMILES,SSTS inhibition at 10 micromolar
1,COCC1OC(OCc2ccccc2)C(NC(=O)CN)C(OCc2ccccc2)C1O (stereo not drawn) [Compound 213],+ (Indicates inhibition greater than . . . 50%)
2,COCC1OC(OCc2ccccc2)C(NC(=O)CCN)C(OCc2ccccc2)C1O (stereo not drawn) [Compound 215],+ (Indicates inhibition greater than . . . 50%)
3,COCC1OC(OCc2ccccc2)C(NC(=O)CCCN)C(OCc2ccccc2)C1O (stereo not drawn) [Compound 217],+ (Indicates inhibition greater than . . . 50%)
4,COCC1OC(OCc2ccccc2)C(NC(=O)CN)C(OCc2ccc3ccccc3c2)C1O (stereo not drawn) [Compound 231],+ (Indicates inhibition greater than . . . 50%)
5,COCC1OC(OCc2ccc(Cl)cc2)C(NC(=O)CCN)C(OCc2ccccc2)C1O (stereo not drawn) [Compound 238],+ (Indicates inhibition greater than . . . 50%)
6,COCC1OC(OCc2ccc(Cl)cc2)C(NC(=O)CCCN)C(OCc2ccccc2)C1O (stereo not drawn) [Compound 240],+ (Indicates inhibition greater than . . . 50%)
7,COCC1OC(OCCc2ccccc2)C(NC(=O)CN)C(OCc2ccccc2)C1O (stereo not drawn) [Compound 260],+ (Indicates inhibition greater than . . . 50%)
8,COCC1OC(OCCc2ccccc2)C(NC(=O)CCN)C(OCc2ccccc2)C1O (stereo not drawn) [Compound 262],+ (Indicates inhibition greater than . . . 50%)
9,COCC1OC(OCCc2ccccc2)C(NC(=O)CCCN)C(OCc2ccccc2)C1O (stereo not drawn) [Compound 264],+ (Indicates inhibition greater than . . . 50%)
10,COCC1OC(OCCc2ccccc2)C(NC(=O)CN)C(OCc2ccc(Cl)cc2)C1O (stereo not drawn) [Compound 266],+ (Indicates inhibition greater than . . . 50%)
11,COCC1OC(OCc2ccc3ccccc3c2)C(NC(=O)CN)C(OCc2ccccc2)C1O (stereo not drawn) [Compound 284],+ (Indicates inhibition greater than . . . 50%)
12,COCC1OC(OCc2ccc3ccccc3c2)C(NC(=O)CCCN)C(OCc2ccccc2)C1O (stereo not drawn) [Compound 288],+ (Indicates inhibition greater than . . . 50%)
